Common to all, as to test: biochemical
Common to all, as to format: binding

Test [1] has as its target HLA-A1 (A*0101) (Homo sapiens, UniProt P04439, A114D/A174V/A182V/D101N/D185E/E176A/E190D/L180R/Q94H/R68K/S129P/T187R/V100A/V91M/W191G).
In test [2] the target is A*3301 (Homo sapiens, UniProt P04439, A270S/D185E/E176V/E277Q/E87N/F33T/G231S/H175R/I121M/I218V/I322F/K168Q/K210R/L300P/L318F/M331R/P217A/Q86R/Q94H/R138Q/T323A/T345S/T97I/V358M/Y195H).
Test [3] addresses A31 (A*3101) (Homo sapiens, UniProt P04439, A270S/D185E/E176V/E277Q/F33T/G231S/G80R/H175R/I121M/I218V/I322F/K168Q/L300P/L318F/M331R/P217A/Q94H/R138Q/T323A/T345S/T97I/V358M).
Test [4] deals with A*6801 (Homo sapiens, UniProt P04439, A269V/D185E/E176V/E277Q/E87N/F33Y/G231S/I121M/I166T/I218V/L180W/L300P/L318F/N151K/P208A/P217A/Q86R/R169H/T345S).
Test [5] addresses HLA-A3.2 (A*0301) (Homo sapiens, UniProt P04439).
Test [6] concerns the target A*0203 (Homo sapiens, UniProt P04439, A173T/D140Y/D185E/D98H/E277Q/G131W/G231S/I119V/I121R/I166T/I218V/L180W/L300P/L318F/N151K/N90K/P208A/P217A/Q86G/Q94H/R138H/R169H/T345S).
Test [7] concerns the target A*0206 (Homo sapiens, UniProt P04439, D140Y/D185E/D98H/E176V/E277Q/F33Y/G131W/G231S/I119V/I121R/I166T/I218V/L300P/L318F/N151K/N90K/P208A/P217A/Q86G/Q94H/R138H/R169H/T345S).
The target of test [8] is HLA-A*0201 (HLA-A2.1) (Homo sapiens, UniProt P04439, D140Y/D185E/D98H/E176V/E277Q/G131W/G231S/I119V/I121R/I166T/I218V/L300P/L318F/N151K/N90K/P208A/P217A/Q86G/Q94H/R138H/R169H/T345S).
The target in test [9] is A*6802 (Homo sapiens, UniProt P04439, A269V/D140Y/D185E/E176V/E277Q/E87N/F33Y/G231S/I121R/I166T/I218V/L180W/L300P/L318F/N151K/P208A/P217A/Q86R/R138H/R169H/S129P/T345S/V36M).
Test [10] addresses A*0202 (Homo sapiens, UniProt P04439, D140Y/D185E/D98H/E176V/E277Q/G131W/G231S/I119L/I121R/I166T/I218V/L180W/L300P/L318F/N151K/N90K/P208A/P217A/Q67R/Q86G/Q94H/R138H/R169H/T345S).

This is an account of results in US9340577B2, “HLA binding motifs and peptides and their uses” (priority 1992, dated 2016).

No end group written: not given here.

For the compound YSDIRELRHY [Peptide 86.0055], the 50% inhibitory concentration (IC50) (commonly the midpoint of a concentration-inhibition curve) in test [1] was 0.0099 µM.

In [1], YVAWKYIYY [Peptide 88.0433] had an IC50 of 0.31 µM.

Compound RFEDPTRRPY [Peptide 78.0005] gave an IC50 in [1] of 19.2 µM.

On to CVSHRGLYY [Peptide 88.0401], for which the IC50 in [2] is over 20 µM; in test [1] it was 0.108 µM; in [3] it was over 20 µM; in test [4] it was over 20 µM; in [5], 0.027 µM.

With WALTVVWLL, the A1 in [1] is on record as 0.0415.

Turning to RTLTLLSVV [Peptide 9013.0075], the IC50 in test [6] is 0.3 µM; in test [7], 0.088 µM; in [8] it was 0.505 µM; in test [9], over 20 µM; in [10], 6.02 µM.

SLNRSDPVTL [Peptide 9013.0233]: the IC50 in test [6] is 0.08 µM; in [7] it was over 20 µM; in test [8], 16.2 µM; in test [9], over 20 µM; in [10], 0.059 µM.

In the case of QLSNGNRTLTL [Peptide 9013.0292], the IC50 in test [6] is 0.683 µM; in test [7] it was over 20 µM; in test [8] it was over 20 µM; in test [9], over 20 µM; in test [10], 0.08 µM.

Regarding NVAEGKEVV [Peptide 9013.0015], the IC50 in test [6] was 4.75 µM; in test [7], over 20 µM; in test [8], over 20 µM; in [9] it was 0.354 µM; in test [10], 1.31 µM.

Consider TLNNSGSYT [Peptide 9013.0065], for which the IC50 in test [6] was 0.233 µM; in test [7] it was over 20 µM; in test [8], over 20 µM; in [9], over 20 µM; in test [10] it was 0.237 µM.

As to QLHTQELFI [Peptide 9013.0079], the IC50 in test [6] worked out at 0.264 µM; in [7] it was 11.7 µM; in test [8], 0.832 µM; in [9] it was 19.1 µM; in [10], 0.025 µM.

In the case of ALYWFRTAM [Peptide 86.0195], the IC50 in test [6] is 0.214 µM; in test [7], 13.9 µM; in test [8], 1.48 µM; in test [9], over 20 µM; in test [10], 0.017 µM.

With GMIDDVTAI [Peptide 1578.44], the half-inhibitory concentration (IC50) in [6] was 0.0073 µM; in test [7], 0.037 µM; in test [8], 0.023 µM; in test [9], over 20 µM; in test [10] it was 0.0053 µM.

For TLELFISNI [Peptide 9013.0082], the IC50 in test [6] amounted to 1.7 µM; in test [7], 3.85 µM; in test [8], 2.46 µM; in test [9] it was 0.949 µM; in test [10], 0.17 µM.

As to TVTTITVYV [Peptide 9013.0068], the 50% inhibitory concentration (IC50) in [6] came to 0.058 µM; in test [7] it was 0.095 µM; in test [8] it was 0.102 µM; in [9], 0.003 µM; in test [10], 0.012 µM.

Turning to VLAEAMSHV [Peptide 1516.08], the IC50 stood at 0.0055 µM in test [6]; 0.089 µM in [7]; 0.029 µM in test [8]; 0.304 µM in test [9]; 0.0019 µM in [10].

Turning to ALYWYKTGI [Peptide 86.0176], the IC50 in test [6] was found to be 0.053 µM; in [7] it was 4.12 µM; in [8], 0.665 µM; in test [9], 3.29 µM; in test [10], 0.021 µM.

Take GLFRVYPEL [Peptide 9013.0039]: the IC50 in test [6] was 0.229 µM; in test [7] it was 1.42 µM; in test [8] it was 0.043 µM; in [9] it was over 20 µM; in [10], 0.013 µM.

In the case of KLTFLCVTL [Peptide 1516.14], the IC50 in test [6] is 0.041 µM; in test [7] it was 0.123 µM; in [8], 0.019 µM; in test [9], over 20 µM; in test [10], 0.003 µM.

As for QQIEFITFL [Peptide 1578.10], the IC50 is 0.02 µM in test [6]; 0.045 µM in [7]; 0.042 µM in test [8]; 0.093 µM in test [9]; 0.0059 µM in test [10].

On to RILQQLLFA [Peptide 1525.14], for which the half-maximal inhibitory concentration (IC50) in test [6] is 0.068 µM; in test [7], 0.02 µM; in test [8], 0.123 µM; in [9], over 20 µM; in test [10] it was 0.068 µM.

Regarding ALAFTCEPET [Peptide 9013.0156], the half-inhibitory concentration (IC50) in [6] was 0.279 µM; in [7] it was 7.96 µM; in test [8] it was over 20 µM; in test [9] it was over 20 µM; in test [10] it was 0.206 µM.

As for `CSCC[C@H](NC(=O)[C@H](C)N)C(=O)N[C@@H](CS)C(=O)N[C@@H](CCCNC(=N)N)C(=O)N[C@@H](Cc1c[nH]c2ccccc12)C(=O)NCC(=O)N[C@@H](CC(C)C)C(=O)N[C@@H](CC(C)C)C(=O)N[C@H](C(=O)O)C(C)C` [Peptide 1334.07], the IC50 in [6] turned out to be 1.57 µM; in test [7], 2.11 µM; in [8], 0.051 µM; in test [9], 3.9 µM; in test [10], 9.28 µM.

Regarding VLKSDLVNEEA [Peptide 9013.0279], the IC50 was 3.42 µM in test [6]; over 20 µM in test [7]; over 20 µM in [8]; over 20 µM in test [9]; 0.014 µM in test [10].

Turning to EVFIPNITV [Peptide 9013.0062], the IC50 in [6] is over 20 µM; in test [7] it was 4.26 µM; in test [8], over 20 µM; in test [9], 0.004 µM; in test [10] it was over 20 µM.

With RTTVKTITVSV [Peptide 9013.0318], the half-inhibitory concentration (IC50) in test [6] worked out at 0.457 µM; in test [7] it was 0.137 µM; in test [8], 1.59 µM; in [9], 0.0014 µM; in test [10], 0.866 µM.

Turning to RLENAILFTA [Peptide 1578.51], the half-inhibitory concentration (IC50) was 1.77 µM in test [6]; 4.56 µM in [7]; 2.15 µM in [8]; over 20 µM in test [9]; 0.043 µM in [10].

Take LLLSNGNRTL [Peptide 9013.0227]: the IC50 in test [6] is 0.412 µM; in [7], 3.99 µM; in test [8], 1.55 µM; in test [9], over 20 µM; in test [10], 0.158 µM.

Regarding RTLQQLLFV [Peptide 1525.15], the IC50 in test [6] was 0.19 µM; in test [7], 0.03 µM; in [8] it was 0.12 µM; in test [9] it was over 20 µM; in test [10], 1.28 µM.

For RLLTLLSVT [Peptide 9013.0076], the 50% inhibitory concentration (IC50) in test [6] is 1.6 µM; in [7], 0.482 µM; in test [8], 1.83 µM; in [9], over 20 µM; in test [10] it was 4.61 µM.

For ILYPNASLLI [Peptide 9013.0145], the half-maximal inhibitory concentration (IC50) in test [6] is 0.0028 µM; in test [7] it was 0.252 µM; in [8], 0.088 µM; in test [9], 3.12 µM; in test [10], 0.0013 µM.

As to `CC[C@H](C)[C@H](N)C(=O)N[C@@H](CCSC)C(=O)N[C@H](C(=O)NCC(=O)N[C@H](C(=O)N[C@@H](CC(C)C)C(=O)N[C@H](C(=O)NCC(=O)N[C@H](C(=O)N[C@@H](C)C(=O)N[C@H](C(=O)O)C(C)C)C(C)C)C(C)C)C(C)C)[C@@H](C)CC` [Peptide 9013.0346], the 50% inhibitory concentration (IC50) was 0.055 µM in [6]; 0.061 µM in test [7]; 0.075 µM in test [8]; 9 µM in test [9]; 0.018 µM in test [10].

With YTNWSEIYI [Peptide 1578.56], the half-inhibitory concentration (IC50) in [6] was determined as 0.047 µM; in test [7] it was 0.216 µM; in test [8], 0.061 µM; in test [9] it was 0.005 µM; in test [10] it was 0.0036 µM.
